The values that follow come from patent US6455570B1, “Polypyrrolinone based inhibitors of matrix metalloproteases” (The Trustees of the University of Pennsylvania, priority 2000, dated 2002).

Holding throughout (type): biochemical
One assay has as its target T1, gelatinase (MMP-2) (Homo sapiens, UniProt P08253).
T1 sequence (P08253 110-660): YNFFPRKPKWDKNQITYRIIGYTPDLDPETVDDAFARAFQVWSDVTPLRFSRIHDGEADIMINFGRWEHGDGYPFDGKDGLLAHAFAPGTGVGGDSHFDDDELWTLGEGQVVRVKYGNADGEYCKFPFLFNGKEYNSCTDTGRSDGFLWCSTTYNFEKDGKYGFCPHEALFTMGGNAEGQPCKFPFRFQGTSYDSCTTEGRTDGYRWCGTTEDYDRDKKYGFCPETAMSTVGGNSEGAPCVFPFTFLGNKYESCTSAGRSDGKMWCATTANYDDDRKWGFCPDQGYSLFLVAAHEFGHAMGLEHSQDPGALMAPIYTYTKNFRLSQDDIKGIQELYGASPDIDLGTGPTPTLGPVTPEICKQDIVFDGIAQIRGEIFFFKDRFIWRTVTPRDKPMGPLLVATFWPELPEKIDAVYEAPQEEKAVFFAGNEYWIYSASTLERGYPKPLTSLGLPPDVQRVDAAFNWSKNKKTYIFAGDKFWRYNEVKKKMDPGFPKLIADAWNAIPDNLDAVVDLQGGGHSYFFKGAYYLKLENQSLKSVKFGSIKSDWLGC
Kind of assay: metalloprotease activity assay by a published procedure (J. Duan, WO/0059285), gelatinase. The following applies: read-out: Ki, inhibitory activity against gelatinase (MMP-2). On the procedure:
(§1) Compounds of the present invention were assayed for metalloprotease activity by a published procedure (see, for example, J. Duan, WO/0059285). […] (Whittaker, M. et al. Chem. Rev. 1999 99:2735; Borkakoti, N. et al. Struct. Biol. 1994 1:106)

A further assay has as its target T2, matrilysin (MMP-7) (Homo sapiens, UniProt P09237).
T2 sequence (P09237 95-267): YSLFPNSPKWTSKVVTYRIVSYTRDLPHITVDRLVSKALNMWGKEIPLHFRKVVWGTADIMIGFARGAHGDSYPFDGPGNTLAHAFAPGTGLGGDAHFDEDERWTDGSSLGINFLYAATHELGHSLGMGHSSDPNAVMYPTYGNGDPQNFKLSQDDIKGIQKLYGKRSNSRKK
Kind of assay: metalloprotease activity assay by a published procedure (J. Duan, WO/0059285), matrilysin. The settings on record: read-out: Ki, inhibitory activity against matrilysin (MMP-7). On the procedure: as §1

The target of assay [1] is membrane type 2 matrix metalloprotease (MMP-15) (Homo sapiens, UniProt P51511). Kind of assay: metalloprotease activity assay by a published procedure (J. Duan, WO/0059285), membrane type 2 MMP. The settings on record: read-out: Ki, inhibitory activity against membrane type 2 matrix metalloprotease (MMP-15). On the procedure:
as §1

Sequence of membrane type 2 matrix metalloprotease (MMP-15) (P51511 132-669, species assumed): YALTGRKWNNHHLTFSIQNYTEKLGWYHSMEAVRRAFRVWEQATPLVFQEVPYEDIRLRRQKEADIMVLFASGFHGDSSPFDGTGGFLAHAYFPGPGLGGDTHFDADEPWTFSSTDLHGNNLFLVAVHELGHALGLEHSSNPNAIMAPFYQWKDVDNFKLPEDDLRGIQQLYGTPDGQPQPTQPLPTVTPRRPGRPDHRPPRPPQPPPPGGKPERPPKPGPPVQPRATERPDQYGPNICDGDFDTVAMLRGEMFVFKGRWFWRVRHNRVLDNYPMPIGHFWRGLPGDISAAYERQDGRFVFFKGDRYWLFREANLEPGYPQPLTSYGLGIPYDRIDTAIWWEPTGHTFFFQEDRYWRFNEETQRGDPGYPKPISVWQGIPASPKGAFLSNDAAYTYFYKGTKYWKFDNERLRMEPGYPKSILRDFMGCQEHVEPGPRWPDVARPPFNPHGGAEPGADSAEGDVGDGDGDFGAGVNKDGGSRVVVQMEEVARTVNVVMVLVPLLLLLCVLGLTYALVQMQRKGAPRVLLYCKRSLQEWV

For `CCOC(=O)C(C)C1=CNC(CC(C)C)(C2=CNC(CC(=O)NO)(CC(C)C)C2=O)C1=O` (single isomer, unassigned; (-)) [(−)-1a, Bispyrrolinone Hydroxamic Acid], the Ki on gelatinase (MMP-2) was 2.9 µM; on matrilysin (MMP-7) it was 6.4 µM; in assay [1] it was 6.8 µM.
